According to patent publication US20100047907A1, “METHODS OF TRANSPORTING EPITHELIAL CELL MONOLAYERS” (Absorption System Group LLC, priority 2008, published 2010):

Assays:
P-glycoprotein (PGP) [1] = target: T1, P-glycoprotein (PGP) (Homo sapiens, UniProt P08183); assay: Bidirectional digoxin Pgp transport across C2BBe1 monolayers; conditions: Caco-2, pH 7.4
P-gp [2] = assay: Bidirectional digoxin Pgp transport across MDCK monolayers; conditions: dog, MDCK-MDR1, pH 7.4, Pgp transport
PGP [3] = target: T2, PGP (Homo sapiens, UniProt P08183); assay: in vitro; conditions: Caco-2, pH 7.4, Pgp transport
P-gp (PGP) = P-gp (PGP) (Homo sapiens, UniProt P08183); assay: in vitro; conditions: Caco-2, pH 7.4, Pgp transport, Papp B->A
PGP [4] = target: T2, PGP; assay: Bidirectional digoxin Pgp transport across Caco-2 monolayers; conditions: Caco-2, pH 7.4
P-glycoprotein (PGP) [5] = target: T1, P-glycoprotein (PGP); assay: in vitro; conditions: Caco-2, pH 7.4, Pgp transport
[6] = tested on: human P-glycoprotein (PGP); assay: Bidirectional digoxin Pgp transport across MDR-MDCK monolayers; conditions: dog, MDCK-MDR1, pH 7.4, Pgp transport; for Papp A→B at 2 h, 10 µM / Papp B→A at 2 h, 10 µM: assayed day 12
P-gp [7] = assay: as above; conditions: human, MDCK-MDR1, pH 7.4, Pgp transport
in vitro = conditions: human, Caco-2, pH 7.4, Passive diffusion
Caco-2 cell monolayers = assay: Sodium butyrate supplementation of medium of Caco-2 monolayers, 7-day culture procedure, simulated transport; type: cell-based, human
Procedure: Caco-2 cells were used to assess whether cells grown using the 7-day culture procure were likely to yield intact cell monolayers following shipment. To shorten the period required for cell monolayer formation the seeding density for each Transwell® insert was increased to 240,000 cells per cm^2 (rather than 60,000 cells/cm^2). Once plated, the cells were incubated overnight at 37° C. with 0.5 mL of medium (90% Dulbecco's Modified Eagle Medium supplemented with 10% fetal bovine serum) in the apical chamber and 1.5 mL of medium in the basolateral chamber to allow for attachment to the Transwell®. Adherent cells were provided with fresh cell culture medium for the next two days. The cells were then left on a laboratory bench, at room temperature, overnight to simulate transport conditions. In order to simulate receipt of transported cells, the next day the Transwell® inserts were removed from tissue culture plates containing 0.75% agarose medium and moved to a new plate containing fresh tissue culture medium. The cell monolayers were then incubated for 3 or 6 days under normal growth conditions before they were tested for membrane integrity and permeability. […]

[8] = Table 9 control, assayed day 10
[9] = Table 9 shipped, 0.75% agarose media basolateral only, assayed day 10
[10] = Table 12 control, 7 d in culture
[11] = Table 12 shipped overnight by air, 0.75% agarose medium basolateral only, 9 d in culture
[12] = Table 5 control, not shipped, assayed 7 D
[13] = Table 6 shipped at 5 D, 0.5% agarose medium basolateral only, assayed 10 D
[14] = Table 7 shipped at day 6, 0.5% agarose medium basolateral only
[15] = shipped, 0.5% agarose medium apical only, Table 5 lower block c1, assayed 7 D
[16] = shipped, 0.5% agarose medium apical only, Table 5 lower block c2, assayed 7 D
[17] = shipped, 0.5% agarose medium apical only, Table 5 upper block c1, assayed 7 D
[18] = shipped, 0.5% agarose medium apical only, Table 5 upper block c2, assayed 7 D
[19] = shipped, 0.5% agarose medium apical only, Table 5 upper block c4, assayed 7 D
[20] = shipped, 0.5% agarose medium basolateral only, assayed 7 D
[21] = Table 10 control, assayed day 12
[22] = Table 13 MDR1-MDCK control, 7 d in culture
[23] = Table 13 MDR1-MDCK shipped overnight by air, 0.75% agarose medium basolateral only, 10 d in culture
[24] = air cargo shipped (three days in transit), 0.75% agarose media basolateral only, assayed day 12

T2 sequence (P08183 whole entry): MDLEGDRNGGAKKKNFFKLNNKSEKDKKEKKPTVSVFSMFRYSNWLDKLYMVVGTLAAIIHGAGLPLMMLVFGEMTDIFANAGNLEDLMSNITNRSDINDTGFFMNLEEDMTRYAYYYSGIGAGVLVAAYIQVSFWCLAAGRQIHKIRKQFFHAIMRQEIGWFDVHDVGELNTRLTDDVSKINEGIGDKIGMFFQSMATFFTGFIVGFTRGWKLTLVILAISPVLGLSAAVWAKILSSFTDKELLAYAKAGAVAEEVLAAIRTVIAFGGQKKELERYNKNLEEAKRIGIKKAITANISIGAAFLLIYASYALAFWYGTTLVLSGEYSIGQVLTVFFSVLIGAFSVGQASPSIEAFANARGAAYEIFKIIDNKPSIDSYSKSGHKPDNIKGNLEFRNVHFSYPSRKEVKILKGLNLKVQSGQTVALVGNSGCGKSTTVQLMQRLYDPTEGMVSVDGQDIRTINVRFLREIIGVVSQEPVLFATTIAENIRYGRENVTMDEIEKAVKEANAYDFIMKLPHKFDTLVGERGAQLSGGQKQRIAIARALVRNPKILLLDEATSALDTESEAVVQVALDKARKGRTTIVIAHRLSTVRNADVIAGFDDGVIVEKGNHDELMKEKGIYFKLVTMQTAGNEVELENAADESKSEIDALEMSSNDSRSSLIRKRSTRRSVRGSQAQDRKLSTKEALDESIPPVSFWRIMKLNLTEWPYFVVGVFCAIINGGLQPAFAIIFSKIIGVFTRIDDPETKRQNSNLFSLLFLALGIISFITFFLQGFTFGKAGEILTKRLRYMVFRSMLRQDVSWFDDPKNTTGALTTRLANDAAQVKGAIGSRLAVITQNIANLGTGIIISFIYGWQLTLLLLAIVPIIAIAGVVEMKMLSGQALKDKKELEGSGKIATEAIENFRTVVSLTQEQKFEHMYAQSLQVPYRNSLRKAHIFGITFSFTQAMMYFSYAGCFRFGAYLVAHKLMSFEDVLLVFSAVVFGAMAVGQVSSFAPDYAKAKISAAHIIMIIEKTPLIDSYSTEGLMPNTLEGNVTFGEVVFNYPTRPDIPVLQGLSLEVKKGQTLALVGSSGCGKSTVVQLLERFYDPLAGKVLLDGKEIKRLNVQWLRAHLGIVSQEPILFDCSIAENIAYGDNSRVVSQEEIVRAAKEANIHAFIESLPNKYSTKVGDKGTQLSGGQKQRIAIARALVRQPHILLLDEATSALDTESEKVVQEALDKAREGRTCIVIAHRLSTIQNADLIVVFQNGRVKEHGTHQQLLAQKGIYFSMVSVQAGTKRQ
T1 sequence (P08183 whole entry): as above
Sequence of P-gp (PGP) (P08183 whole entry): as above

SMILES: C[C@H]1O[C@@H](O[C@H]2[C@@H](O)C[C@H](O[C@H]3[C@@H](O)C[C@H](O[C@H]4CC[C@@]5(C)[C@H](CC[C@@H]6[C@@H]5C[C@@H](O)[C@]5(C)[C@@H](C7=CC(=O)OC7)CC[C@]65O)C4)O[C@@H]3C)O[C@@H]2C)C[C@H](O)[C@@H]1O [Digoxin, digoxin]
- Papp B→A at 2 h, 10 µM (P-glycoprotein (PGP) [1]): 5.67 ×10⁻⁶ cm/s
- Papp A→B at 2 h, 10 µM (P-gp [2]; [8]): 0.2 ×10⁻⁶ cm/s
- Papp A→B at 2 h, 10 µM (P-gp [2]; [9]): 0.04 ×10⁻⁶ cm/s
- Papp A→B at 2 h, 10 µM (P-gp [2]; [10]): 0.12 ×10⁻⁶ cm/s
- Papp A→B at 2 h, 10 µM (P-gp [2]; [11]): 0.16 ×10⁻⁶ cm/s
- Papp B→A at 2 h, 10 µM (P-gp [2]; [8]): 0.94 ×10⁻⁶ cm/s
- Papp B→A at 2 h, 10 µM (P-gp [2]; [9]): 3.83 ×10⁻⁶ cm/s
- Papp B→A at 2 h, 10 µM (P-gp [2]; [10]): 6.92 ×10⁻⁶ cm/s
- Papp B→A at 2 h, 10 µM (P-gp [2]; [11]): 7.44 ×10⁻⁶ cm/s
- Papp A→B at 2 h, 10 µM (PGP [3]; Papp A->B): 1.13 ×10⁻⁶ cm/s
- Papp B→A at 120 min, 10 µM (PGP [3]; Papp B->A): 21.6 ×10⁻⁶ cm/s
- Papp B→A at 2 h, 10 µM (PGP [3]; Papp B->A): 15.2 ×10⁻⁶ cm/s
- Papp B→A at 120 min, 10 µM (P-gp (PGP)): 21.9 ×10⁻⁶ cm/s
- Papp A→B at 120 min, 10 µM (PGP [4]): 0.66 ×10⁻⁶ cm/s
- Papp B→A at 2 h, 10 µM (P-glycoprotein (PGP) [5]): 6.86 ×10⁻⁶ cm/s
- Papp A→B at 120 min, 10 µM [6, 12]: 0.1 ×10⁻⁶ cm/s
- Papp A→B at 120 min, 10 µM ([6]; Table 6 control, assayed 10 D): 0.15 ×10⁻⁶ cm/s
- Papp A→B at 120 min, 10 µM [6, 13]: 0.21 ×10⁻⁶ cm/s
- Papp A→B at 2 h, 10 µM ([6]; Table 7 control): 0.15 ×10⁻⁶ cm/s
- Papp A→B at 2 h, 10 µM [6, 14]: 0.09 ×10⁻⁶ cm/s
- Papp A→B at 120 min, 10 µM [6, 15]: 0.18 ×10⁻⁶ cm/s
- Papp A→B at 120 min, 10 µM [6, 16]: 0.09 ×10⁻⁶ cm/s
- Papp A→B at 120 min, 10 µM [6, 17]: 0.11 ×10⁻⁶ cm/s
- Papp A→B at 120 min, 10 µM [6, 18]: 0.06 ×10⁻⁶ cm/s
- Papp A→B at 120 min, 10 µM [6, 19]: 0.07 ×10⁻⁶ cm/s
- Papp A→B at 120 min, 10 µM [6, 20]: 0.06 ×10⁻⁶ cm/s
- Papp B→A at 120 min, 10 µM [6, 12]: 6.7 ×10⁻⁶ cm/s
- Papp B→A at 120 min, 10 µM ([6]; Table 6 control, assayed 10 D): 10.8 ×10⁻⁶ cm/s
- Papp B→A at 120 min, 10 µM [6, 13]: 9.14 ×10⁻⁶ cm/s
- Papp B→A at 2 h, 10 µM ([6]; Table 7 control): 6.37 ×10⁻⁶ cm/s
- Papp B→A at 2 h, 10 µM [6, 14]: 6.4 ×10⁻⁶ cm/s
- Papp B→A at 120 min, 10 µM [6, 15]: 7.05 ×10⁻⁶ cm/s
- Papp B→A at 120 min, 10 µM [6, 16]: 8.27 ×10⁻⁶ cm/s
- Papp B→A at 120 min, 10 µM [6, 17]: 5.24 ×10⁻⁶ cm/s
- Papp B→A at 120 min, 10 µM [6, 18]: 6.19 ×10⁻⁶ cm/s
- Papp B→A at 120 min, 10 µM ([6]; shipped, 0.5% agarose medium apical only, Table 5 upper block c3, assayed 7 D): 4.65 ×10⁻⁶ cm/s
- Papp B→A at 120 min, 10 µM [6, 19]: 6.39 ×10⁻⁶ cm/s
- Papp B→A at 120 min, 10 µM [6, 20]: 6.09 ×10⁻⁶ cm/s
- Papp A→B at 2 h, 10 µM (P-gp [7]; [21]): 0.04 ×10⁻⁶ cm/s
- Papp A→B at 2 h, 10 µM (P-gp [7]; [22]): 0.02 ×10⁻⁶ cm/s
- Papp A→B at 2 h, 10 µM (P-gp [7]; [23]): 0.09 ×10⁻⁶ cm/s
- Papp A→B at 2 h, 10 µM (P-gp [7]; [24]): 0.07 ×10⁻⁶ cm/s
- Papp B→A at 2 h, 10 µM (P-gp [7]; [21]): 10.9 ×10⁻⁶ cm/s
- Papp B→A at 2 h, 10 µM (P-gp [7]; [22]): 12.6 ×10⁻⁶ cm/s
- Papp B→A at 2 h, 10 µM (P-gp [7]; [23]): 20.1 ×10⁻⁶ cm/s
- Papp B→A at 2 h, 10 µM (P-gp [7]; [24]): 13.1 ×10⁻⁶ cm/s

SMILES: CC(C)NCC(O)COc1cccc2[nH]ccc12 (stereo not shown) [Pindolol, pindolol]
- Papp A→B at 2 h (in vitro): 14.2 ×10⁻⁶ cm/s

SMILES: CCCC(=O)[O-].[Na+] [sodium butyrate]
- effect on cell monolayer integrity and permeability following transport (Caco-2 cell monolayers; 4 mM in medium for three days prior to simulated transport, not following transport): adversely affects monolayer integrity and permeability following transport
- effect on cell monolayer integrity or permeability (Caco-2 cell monolayers; added to tissue culture medium following simulated transport, not prior to transport): does not disrupt cell monolayer integrity or permeability
